Data set [1] deals with T1, human δ-opioid receptor (OPRD1) (Homo sapiens, UniProt P41143). The data set is described as follows: Forskolin-induced cAMP accumulation assay, DOR agonist mode. The following applies: for Emax: read-out: DOR Agonist %Emax ± SEM. (Changes in cAMP serve as a functional read-out for many G protein-coupled receptors.)
A short description of data set [2]: Multi-point cytosol stability assay, human. Particulars: human cytosol fractions, pH 7.4. The class given is in vitro ADME.
A short description of data set [3]: Multi-point microsome stability assay, rat. The class given is in vitro ADME. The following applies: male, Sprague Dawley, rat microsomal fractions, pH 7.4.
Data set [4] in a line: Multi-point cytosol stability assay, mouse. The data set is classed as in vitro ADME. The following applies: mouse cytosol fractions, pH 7.4.
Data set [5] can be described thus: Multi-point cytosol stability assay, rat. The class given is in vitro ADME. The following applies: rat cytosol fractions, pH 7.4.
Data set [6] concerns the target T2, human κ-opioid receptor (OPRK1) (Homo sapiens, UniProt P41145). The data set is described as follows: Forskolin-induced cAMP accumulation assay, KOR agonist mode. The following applies: for Emax: read-out: KOR Agonist %Emax ± SEM.
Data set [7] concerns the target human μ-opioid receptor (OPRM1) (Homo sapiens, UniProt P35372). The data set is described as follows: cell-based. The following applies: for Emax: OPRM1, read-out: MOR Agonist %Emax ± SEM.
Data set [8] can be described thus: Parallel artificial membrane permeability assay. The class given is in vitro ADME. Particulars: for PAMPA permeability Papp: stirring double-sink PAMPA. (In general: The PAMPA barrier holds no transporters, so it reflects passive diffusion.)
Data set [9] can be described thus: Multi-point microsome stability assay, mouse. The class given is in vitro ADME. Particulars: male, CD-1, mouse, mouse microsomal fractions, pH 7.4.
Another data set is described as follows: Kinetic solubility assay. The class given is physicochemical. Particulars: kinetic from dmso stock.
The nature of data set [10]: Multi-point microsome stability assay, human. The data set is classed as in vitro ADME. Particulars: both, human microsomal fractions, pH 7.4.
Data set [11] addresses T1, human δ-opioid receptor (OPRD1). Kind of data set: Forskolin-induced cAMP accumulation assay, DOR antagonist mode. Particulars: for DOR Antagonist %Imax ± SEM: versus EC50 of SNC80, normalized to naltrexone.
The target of data set [12] is T3, mouse mu opioid receptor (mMOR-CHO) (Mus musculus, UniProt P42866). The data set is described as follows: [35S]GTPγS functional assay, mMOR-CHO membranes. The class given is biochemical. For orientation: GTPγS resists hydrolysis and so accumulates on activated G proteins.
T3 sequence (P42866 whole entry): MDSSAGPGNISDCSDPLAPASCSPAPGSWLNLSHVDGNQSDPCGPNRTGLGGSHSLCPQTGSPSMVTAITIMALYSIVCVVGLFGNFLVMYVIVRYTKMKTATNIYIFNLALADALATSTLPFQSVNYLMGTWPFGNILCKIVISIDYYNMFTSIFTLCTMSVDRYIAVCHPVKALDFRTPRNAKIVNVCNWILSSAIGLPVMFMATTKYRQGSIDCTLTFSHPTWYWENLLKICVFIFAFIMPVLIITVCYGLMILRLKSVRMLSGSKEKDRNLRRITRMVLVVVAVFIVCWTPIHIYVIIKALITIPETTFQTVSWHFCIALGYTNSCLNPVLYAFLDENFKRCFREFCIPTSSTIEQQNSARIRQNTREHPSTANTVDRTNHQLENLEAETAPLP
The target in data set [13] is T3, mouse mu opioid receptor (mMOR-CHO). The data set is described as follows: Competition radioligand binding assay, [3H]naloxone, mMOR-CHO membranes.
The target of data set [14] is T2, human κ-opioid receptor (OPRK1). The data set is described as follows: Forskolin-induced cAMP accumulation assay, KOR antagonist mode.

Converted amounts (≈) assume the structure as drawn. “And” between values parts separate entries of the source, which are not always exact repeats. Equal entries are not always repeated.

human μ-opioid receptor (OPRM1), sequence (P35372 whole entry, the tested form may be a part): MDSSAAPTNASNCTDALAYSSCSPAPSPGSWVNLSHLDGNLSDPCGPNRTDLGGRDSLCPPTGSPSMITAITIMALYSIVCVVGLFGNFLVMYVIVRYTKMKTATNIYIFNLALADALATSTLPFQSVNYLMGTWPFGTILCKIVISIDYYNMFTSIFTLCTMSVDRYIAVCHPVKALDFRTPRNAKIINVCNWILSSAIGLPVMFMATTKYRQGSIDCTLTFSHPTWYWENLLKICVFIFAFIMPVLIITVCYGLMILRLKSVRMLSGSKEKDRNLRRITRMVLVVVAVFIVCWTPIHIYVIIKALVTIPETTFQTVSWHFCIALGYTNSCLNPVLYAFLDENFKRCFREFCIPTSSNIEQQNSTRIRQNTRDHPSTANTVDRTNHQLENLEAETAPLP
T1 sequence (P41143 whole entry): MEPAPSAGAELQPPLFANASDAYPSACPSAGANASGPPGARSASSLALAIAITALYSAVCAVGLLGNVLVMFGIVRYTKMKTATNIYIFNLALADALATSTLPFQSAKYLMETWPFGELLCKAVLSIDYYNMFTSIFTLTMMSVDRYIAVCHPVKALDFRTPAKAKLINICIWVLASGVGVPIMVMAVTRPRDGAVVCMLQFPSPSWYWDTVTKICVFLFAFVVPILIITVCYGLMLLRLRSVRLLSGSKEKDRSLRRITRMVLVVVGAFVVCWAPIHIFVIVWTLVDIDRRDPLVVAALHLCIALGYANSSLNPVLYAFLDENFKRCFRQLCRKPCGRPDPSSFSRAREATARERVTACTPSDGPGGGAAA
T2 sequence (P41145 whole entry): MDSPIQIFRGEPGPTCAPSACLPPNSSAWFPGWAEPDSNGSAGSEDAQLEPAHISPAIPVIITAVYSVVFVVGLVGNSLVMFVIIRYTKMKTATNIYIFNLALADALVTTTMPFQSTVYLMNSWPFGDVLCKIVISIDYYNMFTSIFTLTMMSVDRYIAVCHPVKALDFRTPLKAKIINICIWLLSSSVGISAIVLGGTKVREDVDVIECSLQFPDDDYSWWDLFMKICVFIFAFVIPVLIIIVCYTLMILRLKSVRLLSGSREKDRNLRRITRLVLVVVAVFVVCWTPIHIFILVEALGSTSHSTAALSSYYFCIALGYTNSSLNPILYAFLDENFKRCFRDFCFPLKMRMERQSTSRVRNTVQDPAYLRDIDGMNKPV

Regarding `C=C[C@H]1[C@H]2CCC[C@]1(c1cccc(NC(C)=O)c1)CCN2CCc1ccccc1` [compound 3, N-(3-((1R,5S,9R)-2-Phenethyl-9-vinyl-2-azabicyclo[3.3.1]nonan-5-yl)phenyl)acetamide], the EC50 amounted to 303 ± 40.7 nM in data set [1], 357 ± 109 nM in [6] and 2.73 nM in data set [7]. The values for the Emax in [1], in [6] and in data set [7] were 56.6%, 45.5% and 101%, respectively. The half-life at 1 μM in data set [2] was 78 min; in data set [3], 3 min; in [4] it was 22.9 min; in data set [5] it was 88.1 min; in data set [9], 6.4 min; in data set [10], 21.3 min. The compound also displayed a Papp in data set [8] (PAMPA) of 731 ×10⁻⁶ cm/s. In the data set “Kinetic solubility assay”, the kinetic solubility was 38 µg/mL (≈ 97.8 µM).
In the case of `C=C[C@H]1[C@H]2CCC[C@]1(c1cccc(O)c1)CCN2CCc1ccc([N+](=O)[O-])cc1` [compound 17, 3-((1R,5S,9R)-2-(4-Nitrophenethyl)-9-vinyl-2-azabicyclo[3.3.1]nonan-5-yl)phenol], the IC50 in data set [11] turned out to be 105 ± 21.3 nM; in data set [12] it was 16.2 ± 2.52 nM. Further, in [11], the “DOR Antagonist %Imax ± SEM” value is given as 137.2 ± 9.7%. Besides, the half-life at 1 μM was over 120 min in [2]; 12.9 min in data set [3]; 105 min in [4]; over 120 min in data set [5]; 9.31 min in data set [9]; 16.8 min in data set [10]. Further, the EC50 in data set [6] and in data set [7] was over 10000 nM each time. The “GTPγS % Imax of (DAMGO)” value in [12] (MOR, maximal percent inhibition) was 98.42% and 98.42 ± 4.24%. In “Kinetic solubility assay”, this compound yielded a solubility (kinetic) of 10.6 µg/mL (≈ 27 µM). Further, the Ki in [13] was 0.41 ± 0.05 nM.
Regarding `C=C[C@H]1[C@H]2CCC[C@]1(c1cccc(O)c1)CCN2C` [compound 11, 3-((1R,5S,9R)-2-Methyl-9-vinyl-2-azabicyclo[3.3.1]nonan-5-yl)phenol], the EC50 in data set [1], in data set [6] and in data set [7] was over 10000 nM in each case. The IC50 in [11] and in [14] was over 10000 nM in each case. Moreover, the half-life at 1 μM in data set [2] is 97.9 min; in data set [3], 62.6 min; in [4], 112 min; in [5] it was over 120 min; in data set [9] it was 21.8 min; in data set [10], 68.9 min. In “Kinetic solubility assay”, this compound showed a solubility (kinetic) of over 25 µg/mL.
Consider `C=C[C@H]1[C@H]2CCC[C@]1(c1cccc(O)c1)CCN2CCc1ccc(F)cc1` [compound 19, 3-((1R,5S,9R)-2-(4-Fluorophenethyl)-9-vinyl-2-azabicyclo[3.3.1]nonan-5-yl)phenol], for which the EC50 is over 10000 nM in [1], over 10000 nM in data set [6] and 3.33 nM in [7]. The same compound displayed an IC50 in [11] of 120 ± 18.5 nM. In addition, in data set [11], the “DOR Antagonist %Imax ± SEM” value is 153.1 ± 15.3%. Moreover, the half-life at 1 μM in data set [2] is over 120 min; in [3] it was 7.6 min; in [4], 108 min; in [5], 79.4 min; in [9], 5.26 min; in data set [10] it was 11.8 min. The Emax in [7] is 74.3%. Besides, the solubility (kinetic) in the data set “Kinetic solubility assay” was over 36 µg/mL.
As to `C=C[C@@H]1[C@H]2CCC[C@]1(c1cccc(O)c1)CCN2C` [compound 10, 3-((1R,5S,9S)-2-Methyl-9-vinyl-2-azabicyclo[3.3.1]nonan-5-yl)phenol], the EC50 in data set [1], in data set [6] and in [7] was over 10000 nM each time. Besides, the IC50 in [11] and in [14] was over 10000 nM each time. Also, the half-life at 1 μM is over 120 min in data set [2]; 50.8 min in data set [3]; over 120 min in data set [4]; 116 min in data set [5]; 72.1 min in data set [9]; over 120 min in data set [10]. The solubility (kinetic) in the data set “Kinetic solubility assay” is over 25 µg/mL.
`C=C[C@H]1[C@H]2CCC[C@]1(c1cccc(O)c1)CCN2CC1CC1` [compound 15, 3-((1R,5S,9R)-2-(Cyclopropylmethyl)-9-vinyl-2-azabicyclo[3.3.1]nonan-5-yl)phenol]: the EC50 in data set [1], in data set [6] and in data set [7] was over 10000 nM throughout. Further, in data set [11], the IC50 was over 10000 nM. Besides, the half-life at 1 μM in [2] was over 120 min; in [3] it was 9.7 min; in data set [4], over 120 min; in [5] it was 108 min; in data set [9], 2.7 min; in data set [10], 8.7 min. Also, in [8], the “PAMPA permeability Papp” value is >1000 10E-6 cm/s. The compound further displayed a kinetic solubility in “Kinetic solubility assay” of over 29 µg/mL.
In the case of `C=C[C@H]1[C@H]2CCC[C@]1(c1cccc(O)c1)CCN2CCc1ccc(O)cc1` [compound 20, 3-((1R,5S,9R)-2-(4-Hydroxyphenethyl)-9-vinyl-2-azabicyclo[3.3.1]nonan-5-yl)phenol], the EC50 in data set [1] is over 10000 nM; in data set [6] it was over 10000 nM; in data set [7], 4.16 nM. The compound also gave an IC50 in [11] of 303 ± 29.2 nM. Also, the “DOR Antagonist %Imax ± SEM” value in data set [11] was found to be 163.6 ± 19.5%. The half-life at 1 μM in [2] was over 120 min; in data set [3] it was 27.8 min; in data set [4] it was over 120 min; in data set [5], over 120 min; in data set [9] it was 12.5 min; in [10], 88.1 min. Further, the Emax in data set [7] was 54.8%. This compound returned a kinetic solubility in the data set “Kinetic solubility assay” of over 34 µg/mL.
Take `C=C[C@H]1C2CCCC1(c1cccc(O)c1)CCN2CCc1ccccc1[N+](=O)[O-]` (stereo in doubt) [compound 24, 3-((1S,SR,9R)-2-(2-Nitrophenethyl)-9-vinyl-2-azabicyclo[3.3.1]nonan-5-yl)phenol]: the values for the EC50 in data set [1], in [6] and in data set [7] were 954 ± 502 nM, over 10000 nM and 2.55 nM, respectively. The Emax is 35.9% in data set [1], 0% in data set [6] and 92.6% in data set [7]. Inhibition in data set [11] was half-maximal at 114 ± 11.7 nM (IC50). The “DOR Antagonist %Imax ± SEM” value in data set [11] came to 63.5 ± 12.0%. Besides, the half-life at 1 μM in data set [2] is 112 min; in [3], 0.41 min; in [4] it was 102 min; in data set [5] it was over 120 min; in [9] it was 1.22 min; in data set [10] it was 5.02 min. The kinetic solubility in the data set “Kinetic solubility assay” was over 39 µg/mL.
Consider `C=C[C@H]1[C@H]2CCC[C@]1(c1cccc(O)c1)CCN2CCc1cccc([N+](=O)[O-])c1` [compound 18, 3-((1R,5S,9R)-2-(3-Nitrophenethyl)-9-vinyl-2-azabicyclo[3.3.1]nonan-5-yl)phenol], for which the EC50 was over 10000 nM in data set [1], over 10000 nM in data set [6] and 2.05 nM in [7]. The IC50 in data set [11] is 52.5 ± 8.43 nM. Besides, the “DOR Antagonist %Imax ± SEM” value in [11] stood at 149.9 ± 13.2%. Further, the half-life at 1 μM in data set [2] was over 120 min; in data set [3] it was 1.98 min; in data set [4], over 120 min; in data set [5], over 120 min; in [9] it was 3.54 min; in data set [10], 10.6 min. In addition, the Emax is 0% in data set [6] and 85.8% in [7]. Moreover, the “PAMPA permeability Papp” value in data set [8] is given as >1000 10E-6 cm/s. The compound further came in with a kinetic solubility in the data set “Kinetic solubility assay” of over 39 µg/mL.
With `C=C[C@H]1C2CCCC1(c1cccc(O)c1)CCN2CCc1cccc(O)c1` (stereo in doubt) [compound 25, 3-((1S,5R,9R)-2-(3-Hydroxyphenethyl)-9-vinyl-2-azabicyclo[3.3.1]nonan-5-yl)phenol], the results for the EC50 in data set [1], in [6] and in data set [7] were over 10000 nM, over 10000 nM and 0.93 nM, respectively. Also, the Emax in data set [1] is 0%; in data set [7], 89.7%. Moreover, half-maximal inhibition in data set [11] (IC50) was put at 107 ± 12.4 nM. Also, in data set [11], the “DOR Antagonist %Imax ± SEM” value is recorded as 138.7 ± 19.3%. Further, the half-life at 1 μM in data set [2] is over 120 min; in [3], 9.65 min; in [4] it was over 120 min; in data set [5], over 120 min; in data set [9], 4.02 min; in [10], 27 min.
Regarding `C=C[C@H]1[C@H]2CCC[C@]1(c1cccc(O)c1)CCN2CCc1cccs1` [compound 16, 3-((1R,5S,9R)-2-(2-(Thiophen-2-yl)ethyl)-9-vinyl-2-azabicyclo[3.3.1]nonan-5-yl)phenol], the EC50 in data set [1] was 13.2 ± 6.8 nM; in [7] it was 0.8 nM. Also, the results for the Emax in data set [1] and in data set [7] were 20% and 101%, respectively. The compound further showed an IC50 in data set [11] of 59.8 ± 13 nM. In addition, the “DOR Antagonist %Imax ± SEM” value in data set [11] was 87.1 ± 13.9%. The half-life at 1 μM was over 120 min in data set [2]; 1.04 min in data set [3]; over 120 min in [4]; over 120 min in data set [5]; 1.66 min in data set [9]; 8.21 min in data set [10]. Further, the kinetic solubility in the data set “Kinetic solubility assay” is over 35 µg/mL.

In general, EC50 refers to the concentration at which the effect is half-maximal. In general, Emax refers to the maximal effect, on the per cent scale that the assay sets. By half-life is commonly meant how long it takes for the measured level to halve. Low values mean fast loss, high ones slow loss. Broadly, the Papp is a coefficient for how fast a substance crosses the barrier. A higher Papp goes with ready permeation. As a reminder, the solubility (kinetic) is the concentration staying in solution when a stock, usually in DMSO, is diluted into the medium. The IC50 is the concentration that gives 50% inhibition. A low value points to inhibition by little substance. One may read the Ki as the equilibrium dissociation constant of an inhibitor or competing ligand from its target. A lower Ki goes with tighter binding.

The values are drawn from PMC12136991 (ACS chemical neuroscience, 2025).
